Entries after “also recorded” stand apart in the source; their conditions may differ.
Key:
canine left ventricle = experiment: cardiac energetics (O2 consumption, mechanical efficiency) in anesthetized control and heart failure dogs; assay type: in vivo
Procedure: 3. Heart failure was induced by chronic rapid ventricular pacing at a rate of 210 bpm for 3 weeks, followed by 240 bpm for one week. This brought the dogs into heart failure with an average left ventricular end-diastolic pressure (LVEDP) of 23.5∀5.2 mm Hg. Acute pacing (140 bpm) was used to keep heart rate constant during the experiments.
b. Oxygen consumption per unit time (MVO2) in the left circumflex artery territory was calculated from the difference in oxygen saturation in simultaneously sampled coronary sinus and aortic blood, multiplied by left circumflex coronary blood flow. This, in turn, was calculated from flow velocity multiplied by left circumflex diameter. Left circumflex diameter was analyzed from a film projector (CAP 35B, Angiogram Projection System) using quantitative angiography (Cath View v1.36, Image Comm Systems).
c. The external useful work of the LV was indexed as stroke work (SW=area of pressure-volume loops). Both stroke SW and MVO2 were converted to Joules per beat (Suga, H. et al. 1983, Circ. Res. 53:306-318). Cardiac mechanical efficiency was calculated as SW/MVO2. Hemodynamic pressure-dimension data were digitized at 200 Hz and stored for subsequent analysis on a personal computer using customized software.
Isoflurane was chosen as the anesthetic because of its relatively mild and stable effect on the cardiovascular system (R M. Jones, British Journal of Anaesthesia, 56 Suppl 1:57S-69S (1984); E. I. Eger, British Journal of Anaesthesia, 56 Suppl 1:71S-99S (1984)). A doppler flow velocimeter (0.014 Cardiometrics) and a 6 Fr. angiography catheter (AL-I or JL 3.5, Cordis Laboratories Inc) were inserted through an 8 Fr sheath (Cordis) in the right femoral artery and advanced to the left circumflex coronary artery. These catheters permitted measurement of coronary flow and injection of contrast for the measurement of coronary diameter. A catheter (A2 multipurpose, 6 Fr.) was advanced from the left external jugular vein via a 7 Fr. sheath (Cordis) into the great cardiac vein for withdrawal of mixed coronary venous blood. To measure cardiac oxygen consumption, blood samples from the coronary sinus and the femoral artery were obtained simultaneously. At each time point, blood flow velocity in the left circumflex artery was measured and coronary angiography was performed.
In 4 of 11 experiments, preexisting indwelling sonomicrometer crystals, Konigsberg micromanometers, and IVC occluders (see above) were used for dimension and pressure measurements, and for acute preload reduction. In the other 7 experiments, a combined micromanometer-conductance catheter (M!illar) was advanced to the LV and positioned for continuous measurement of LV pressure and volume via a 7 Fr. sheath (Cordis) in the femoral artery. A Swan-Ganz catheter (Arrow, 7 Fr.) was advanced via a 9F sheath in the femoral vein to the pulmonary artery for measurement of cardiac output and for hypertonic saline wash-in (Baan, J., E. van der Velde, A. D. van Dijk and et al. 1992, In Cardiovascular system dynamics: Models and measurements. Anonymous Plenum Press, New York, 569; Kass, D. A. et al. 1986. Circulation 73:586-595) to calibrate the volume signal. This catheter was then replaced with a balloon occlusion catheter (Cordis) positioned in the IVC for acute preload reduction for pressure-volume analysis.
A combined manometer-conductance catheter was positioned in the left ventricle for continuous measurement of volume and pressures in the ventricle and aorta. Volume was calibrated with measurement of cardiac output and hypertonic saline wash-in. In addition, dogs were acutely instrumented a doppler flow velocimeter probe and an angiography catheter in the left circumflex coronary artery to measure coronary flow velocity and coronary diameter. […]

[1] = after a standard dose (300 mg p.o.); cited from earlier work
rat cardiac muscle = experiment: in vitro calcium-sensitizing assay: contractile force and fura-2 [Ca2+]i in rat cardiac muscle
[2] = tested on: LV contractility in conscious dogs; experiment: cardiac performance in conscious dogs before and after pacing-induced heart failure (pressure-dimension relations); assay type: in vivo; details: for PRSW (slope of stroke work/end-diastolic dimension relation): 200 mg infused over 30 minutes in the right atrium
Text: 1. Surgical preparation for chronic dog protocol. Male mongrel dogs (20-30 kg) were anesthetized with 1-2% halothane after induction with sodium pentothal. The chest was opened via a lateral thoracotomy, and indwelling catheters (Tygon; Norton Plastics and Synthetic Division) were secured in the right atrium (for drug infusion) and in the descending aorta (for pressure measurement). An indwelling high fidelity micromanometer (P22, Konigsberg Instruments) was placed in the left ventricle (LV) through an apical stab. […] Pacing leads were attached to the left atrium for acute pacing during experimentation, and epicardial leads for chronic pacing were attached to the right ventricular free wall and connected to a programmable pacemaker (Spectrax, Medtronics) within a subcutaneous pocket. The chest was closed in layers, catheters and leads were externalized to the mid-scapulae, and protected by an external jacket. Analgesia (morphine, 10 mg s.c.) was given in the immediate postoperative period as necessary. Antibiotics were administered for the first 72 hours after surgery. The dogs were allowed to recover fully for 7-10 postoperative days before experimentation. The surgical and experimental protocol was approved by Johns Hopkins School of Medicine Animal Care and Use Committee.
3. Heart failure was induced by chronic rapid ventricular pacing at a rate of 210 bpm for 3 weeks, followed by 240 bpm for one week. […] Acute pacing (140 bpm) was used to keep heart rate constant during the experiments.
a. The analysis of pressure-dimension relationships and the arterial pressure response allowed the evaluation of variables related to myocardial systolic and diastolic performance. […] Preload was indexed as the left ventricular end diastolic anterior -posterior short axis dimension (LVEDD) or the LV end-diastolic volume from the conductance catheter. Afterload was evaluated as effective arterial elastance (Ea, ratio of LV systolic pressure to stroke dimension (Kass, D. A. 1997, Myocardial Mechanics. In Heart Failure. P. Poole-Wilson et al., eds. Churchill Livingstone, New York. 87-108; Kelly, R. P., C. T. Ting, and T. M. Yang. 1992, Circulation 86:513-521). This parameter is not preload-dependent and has been validated to reflect total afterload, which incorporates systemic vascular resistance, aortic impedance, and the reflected wave properties of the vasculature. Contractility was indexed by +dP/dt and the load-independent parameter, preload-recruitable stroke work (PRSW; slope of stoke work/end-diastolic dimension relation) (Kass, D. A., 1986, Circulation 73:586-595). Diastolic performance was measured by peak −dP/dt, time to peak filling rate (ttpf), and the time constant of relaxation (tau). Tau was calculated using the method of Weiss and colleagues (Ingwall, J. S. 1993, Circulation 87:VII-58-VII-62.).
(§1) The ECG was continuously monitored.

[3] = value used for the dose extrapolation in 25 kg dogs; cited from earlier work
cardiac muscle = experiment: steady-state analysis of calcium sensitivity (steady-state force versus steady-state [Ca2+]i); assay type: cell-based, rat; details: for effects on calcium sensitivity, comparison of the two agents: FIG. 4
Text: A particularly rigorous method of assessing calcium sensitivity is by steady-state analysis by procedures disclosed in Gao, W. D. et al., supra. […] That response represents defining characteristics of a calcium-sensitizing agent.

[4] = plasma level estimate in 25 kg dogs; assay type: in vivo; details: 200 mg i.v. in 25 kg dogs
Text: as §1

phosphodiesterase = details: stated as well established; cited from earlier work

Compound: CC(CCc1ccc(O)cc1)NCCc1ccc(O)c(O)c1 (centres unmarked) [dobutamine]
- increase of oxygen consumption (canine left ventricle; heart failure dogs, infusion 10 μg/Kg/min, p=0.007): 145±53.0%
- change of SW/MVO2 (canine left ventricle; heart failure dogs, infusion 10 μg/Kg/min, p=0.05): −29.3±6.8%
- mechanical efficiency (canine left ventricle; heart failure dogs, infusion 10 μg/Kg/min, FIG. 9): significant decrease in mechanical efficiency

Compound: Oc1ncnc2[nH]ncc12 [allopurinol, 4-hydroxy-pyrazolo[3,4-d]pyrimidine]
- plasma levels achieved in humans [1]: 3000 to 9000 ng/mL
- calcium ion concentration ([Ca2+]i) (rat cardiac muscle; fura-2, FIG. 1): decreasing calcium ion concentration
- contractile force (rat cardiac muscle; relative to control not exposed, FIG. 1): increases contractile force
- oxygen utilization (canine left ventricle; failing canine left ventricle, 200 mg iv): decreases oxygen utilization
- myocardial arterio-venous oxygen difference (canine left ventricle; heart failure dogs, 200 mg iv): not changed
- change in left circumflex blood flow (canine left ventricle; heart failure dogs, 10 min post-infusion of 200 mg iv over 30 minutes, p=0.0015): −40±6%
- effect on healthy dogs ([2]; acted only in dogs with heart failure): did not adversely affect healthy dogs
- PRSW (slope of stroke work/end-diastolic dimension relation) ([2]; after pacing-induced heart failure): increased the slope after heart failure
- change of (dP/dt)max at the peak response ([2]; control dogs (n=10), 10 min after end of infusion, p=0.01): +8.3±3.2%
- (dP/dt)max at the peak response ([2]; control dogs (n=10), 10 min after end of infusion, base line value 3101±162): 3373±225 mm Hg/s
- PRSW (slope of stroke work/end-diastolic dimension relation) ([2]; control dogs): did not affect the slope of the PRSW relation; also recorded: not significantly changed
- effect on diastolic function ([2]; in vivo use, dogs): no adverse effect on diastolic function
- distribution volume [3]: 1.6 L/kg
- effects on calcium sensitivity, comparison of the two agents (cardiac muscle): essentially indistinguishable effects on calcium sensitivity
- maximal force (cardiac muscle; steady-state analysis, FIG. 2): increased maximal force
- contractile activation curve (steady-state force vs steady-state [Ca2+]i) (cardiac muscle; versus control muscles exposed to no drug, FIG. 2): shifted the contractile activation curve to lower [Ca^2+]i
- plasma level estimated to be attained [4]: 4500 ng/mL
- phosphodiesterase inhibition (phosphodiesterase): no phosphodiesterase inhibition

Compound: Oc1nc(O)c2cn[nH]c2n1 [oxypurinol, 4,6-dihydroxypyrazolo[3,4-d]pyrimidine]
- effects on calcium sensitivity, comparison of the two agents (cardiac muscle): essentially indistinguishable effects on calcium sensitivity
- force at any given [Ca2+]i (cardiac muscle; treated versus control muscles, FIG. 3): generate more force at any given [Ca^2+]i than control muscles

Reference: patent US6569862B1, “Methods for treatment of disorders of cardiac contractility” (Johns Hopkins University, priority 1997, dated 2003)
